Results as given in ChEMBL document CHEMBL1151487, “DHPMP: a novel group I specific metabotropic glutamate receptor agonist” (Bioorg Med Chem Lett, 1996).
pEC50: −log10 of the molar value.

Assays:
[1] = Compound was evaluated for its activity at group I mGluRs for the generation of [3H]inositol phosphate using [3H]inositol pre-labelled guinea-pig cerebral cortex slices.; assay type: tissue-based, Cavia porcellus
Cavia porcellus = species on record: Cavia porcellus; test: Compound was evaluated for inhibition of forskolin-stimulated cAMP generation at Group II and Group III mGluRs; assay type: functional

| Structure (SMILES) | Log EC50 [1] | pEC50 (Cavia porcellus) |
| --- | --- | --- |
| N[C@H](C(=O)O)c1cc(O)cc(O)c1 | -4.9 | – |
| NC(c1cc(O)cc(O)c1)[PH](=O)O (stereo not drawn) | -4.56 | 5.68 |
